Measurements as given in US7473694B2, “Pyrazolopyrimidine derivatives or pharmaceutically acceptable salts thereof” (Teijin Pharma Limited, priority 2005, dated 2009).

target: recombinant human MAPKAP-K2 (Homo sapiens, UniProt P49137); experiment: Inhibition of MAPKAP-K2 enzyme activity (33P-ATP peptide substrate phosphorylation); assay type: biochemical; settings: recombinant human MAPKAP-K2 10 mU, room temperature 30 min, peptide substrate Lys-Lys-Leu-Asn-Arg-Thr-Leu-Ser-Val-Ala; read-out: Activity strength (IC50 against MAPKAP-K2)
Method: General Measurement Method for Determining Inhibition of MAPKAP-K2 Enzyme Activity
(Preparation of Solutions of Compounds)
Each compound was dissolved to DMSO to prepare a solution with a concentration of 20 mmol/L and this solution was stored at −20° C. This stock solution was diluted with DMSO successively to prepare solutions with 200-fold concentrations of a necessary range. These solutions were further diluted with water at a ratio of 1:20 to prepare solutions with 10-fold concentrations of a necessary range. Each of these solutions (5 μL) was used for each reaction in 50 μL-scale. Through the dilution series of all compounds, the final DMSO concentration was kept at 0.5%. Conventional tests for the compounds were carried out at a final concentration ranging from 100 μmol/L to 0.03 μmol/L, but in some cases, tests were carried out at lower concentrations, depending on activity.
(Measurements of MAPKAP-K2 Enzyme Activity)
To a DMSO solution (5 μL) containing a test compound at 5%, a solution (25 μL) containing a peptide substrate [peptide substrate […], ATP 20 μmol/L, Tris buffer 60 mmol/L (pH 7.5), EGTA 0.2 mmol/L, β-mercaptoethanol 0.2%, magnesium acetate 20 mmol/L, [γ-33P]ATP 0.1 μCi (specific radioactivity ca. 110 TBq/mmol)] was added. The reaction was initiated by further adding a solution (20 μL) containing MAPKAP-K2 enzyme [recombinant human MAPKAP-K2 10 mU, Tris buffer 50 mmol/L (pH 7.5), EGTA 0.1 mmol/L, β-mercaptoethanol 0.1%, BSA 0.1%]. After the reaction was carried out at room temperature for 30 min, 200 mmol/L phosphoric acid (50 μL) was added to quench the reaction, and 90 μL of the reaction mixture was adsorbed on a multiscreen PH plate (Millipore). The plate was washed with 100 mmol/L phosphoric acid. After the plate was dried, 30 μL of MicroScint™-O (Perkin-Elmer) was added here, and the radioactivity (cpm) was measured on a scintillation counter to determine the inhibitory activity. The peptide substrate was Lys-Lys-Leu-Asn-Arg-Thr-Leu-Ser-Val-Ala.
(Note) % Reference=(X−B)/(Tot−B)×100 % Inhibition=100%−% Reference • X=count per minute of the well with a test compound • B=count per minute of the well without the enzyme • Tot=count per minute of the well with only DMSO solvent and without a test compound (Calculation of MAPKAP-K2 Inhibitory Activity) • IC50 value=a concentration of compound at which 50% inhibition is observed • The efficacy of each compound in Tables A to G against MAPKAP-K2 is listed in the following Table J.

Sequence of recombinant human MAPKAP-K2 (P49137 whole entry): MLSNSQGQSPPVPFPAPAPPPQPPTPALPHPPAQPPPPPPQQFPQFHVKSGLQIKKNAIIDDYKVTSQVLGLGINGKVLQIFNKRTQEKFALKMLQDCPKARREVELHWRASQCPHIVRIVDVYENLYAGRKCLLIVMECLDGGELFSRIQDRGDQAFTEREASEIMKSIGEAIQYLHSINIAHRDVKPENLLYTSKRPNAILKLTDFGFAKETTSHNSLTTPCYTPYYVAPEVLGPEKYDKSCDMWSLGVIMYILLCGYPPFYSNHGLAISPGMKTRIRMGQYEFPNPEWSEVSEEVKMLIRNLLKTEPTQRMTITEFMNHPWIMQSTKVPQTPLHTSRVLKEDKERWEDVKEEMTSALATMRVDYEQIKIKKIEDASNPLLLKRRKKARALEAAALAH

SMILES | IC50
CCOc1ccc(Nc2c3c(nc4ccnn24)N([C@H]2CC[C@H](N)CC2)CC3)cc1 [A-002] | < 10 µM
CCOc1ccc(Nc2c3c(nc4ccnn24)N(C2CCCC(N)C2)CC3)cc1 (stereo not shown) [A-003] | 10 to 50 µM
CCOc1ccc(Nc2c3c(nc4ccnn24)N([C@H]2CCCC[C@@H]2N)CC3)cc1 [A-004] | 50 to 100 µM
CCOc1ccc(Nc2c3c(nc4ccnn24)N(CCN)CC3)cc1 [A-005] | < 10 µM
CCOc1ccc(Nc2c3c(nc4ccnn24)N(CCCN)CC3)cc1 [A-006] | < 10 µM
CCOc1ccc(Nc2c3c(nc4ccnn24)N(CC(C)(C)CN)CC3)cc1 [A-007] | 50 to 100 µM
CCOc1ccc(Nc2c3c(nc4ccnn24)N([C@H]2CCCNC2)CC3)cc1 [A-008, (S)-(4-ethoxyphenyl)(5-piperidin-3-yl-6,7-dihydro-5H-1,4,5,8a-tetraaza-s-indacen-8-yl)amine] | < 10 µM
CCOc1ccc(Nc2c3c(nc4ccnn24)N(C2CCNCC2)CC3)cc1 [A-009] | < 10 µM
CCOc1ccc(Nc2c3c(nc4ccnn24)N(C2CCN(Cc4ccccc4)C2)CC3)cc1 (stereo not shown) [A-010] | 10 to 50 µM
CCOc1ccc(Nc2c3c(nc4ccnn24)N(C2CCN(CC)C2)CC3)cc1 (stereo not shown) [A-012] | 10 to 50 µM
CCOc1ccc(Nc2c3c(nc4ccnn24)N(C2CCNC2)CC3)cc1 (stereo not shown) [A-013] | < 10 µM
CCOc1ccc(Nc2c3c(nc4ccnn24)N(CC2CCCNC2)CC3)cc1 (stereo not shown) [A-014] | 50 to 100 µM
CCOc1ccc(Nc2c3c(nc4c(F)cnn24)N([C@H]2CCCNC2)CC3)cc1 [A-018, (S)-(4-Ethoxyphenyl)(3-fluoro-5-piperidin-3-yl-6,7-dihydro-5H-1,4,5,8a-tetraaza-s-indacen-8-yl)amine] | < 10 µM
CCOc1ccc(Nc2c3c(nc4c(F)c(F)nn24)N([C@H]2CCCNC2)CC3)cc1 [A-019, (S)-(2,3-Difluoro-5-piperidin-3-yl-6,7-dihydro-5H-1,4,5,8a-tetraaza-s-indacen-8-yl)(4-ethoxyphenyl)amine] | 10 to 50 µM
CCOc1ccc(Nc2c3c(nc4ccnn24)N(O)CC3)cc1 [A-020, 8-(4-ethoxyphenylamino)-6,7-dihydro-1,4,5,8a-tetraaza-s-indacen-5-ol] | < 10 µM
Cc1nc2ccc(Nc3c4c(nc5ccnn35)N([C@H]3CCCNC3)CC4)cc2s1 [A-022, (S)-(2-methylbenzothiazol-6-yl)(5-piperidin-3-yl-6,7-dihydro-5H-1,4,5,8a-tetraaza-s-indacen-8-yl)amine] | < 10 µM
COCCOc1ccc(Nc2c3c(nc4ccnn24)N([C@H]2CCCNC2)CC3)cc1 [A-023, (S)-[4-(2-methoxyethoxy)phenyl](5-piperidin-3-yl-6,7-dihydro-5H-1,4,5,8a-tetraaza-s-indacen-8-yl)amine] | < 10 µM
CCOc1ccc(Nc2c3c(nc4ccnn24)N([C@H]2CCCNC2)C(CO)C3)cc1 (stereo partly drawn) [A-024, (S)-{8-(4-ethoxyphenylamino)-5-piperidin-3-yl-6,7-dihydro-5H-1,4,5,8a-tetraaza-s-indacen-6-yl]methanol] | < 10 µM
c1ccc(CNc2c3c(nc4ccnn24)N([C@H]2CCCNC2)CC3)cc1 [A-025] | < 10 µM
CC(C)(C)CNc1c2c(nc3ccnn13)N([C@H]1CCCNC1)CC2 [A-026] | < 10 µM
c1cc2nc3c(c(NC4CCCC4)n2n1)CCN3[C@H]1CCCNC1 [A-027] | < 10 µM
c1ccc(Nc2c3c(nc4ccnn24)N([C@H]2CCCNC2)CC3)cc1 [A-032] | < 10 µM
c1cc2nc3c(c(Nc4ccc5cn[nH]c5c4)n2n1)CCN3[C@H]1CCCNC1 [A-058] | < 10 µM
FC(F)(F)c1nc2cc(Nc3c4c(nc5ccnn35)N([C@H]3CCCNC3)CC4)ccc2[nH]1 [A-091] | < 10 µM
Nc1c2c(nc3ccnn13)N([C@H]1CCCNC1)CC2 [A-092, (S)-5-piperidin-3-yl-6,7-dihydro-5H-1,4,5,8a-tetraaza-s-indacen-8-ylamine] | < 10 µM
c1coc(Nc2c3c(nc4ccnn24)N([C@H]2CCCNC2)CC3)c1 [A-095, (S)-furan-2-yl-(5-piperidin-3-yl-6,7-dihydro-5H-1,4,5,8a-tetraaza-s-indacen-8-yl)amine] | < 10 µM
CNc1c2c(nc3ccnn13)N([C@H]1CCCNC1)CC2 [A-096] | < 10 µM
COC(=O)c1ccc(Nc2c3c(nc4ccnn24)N(C2CCCNC2)CC3)cc1 (stereo not shown) [A-099] | < 10 µM
c1cc2nc3c(c(Nc4ccc5sccc5c4)n2n1)CCN3[C@H]1CCCNC1 [A-100] | < 10 µM

Next, values leading:

IC50 | SMILES
< 10 µM | CCOc1ccc(Nc2c3c(nc4ccnn24)N([C@H]2CCCNC2)CCC3)cc1 [B-001]
< 10 µM | CCOc1ccc(Nc2c3c(nc4ccnn24)N([C@H]2CC[C@H](N)CC2)CCC3)cc1 [B-002, [5-(4-aminocyclohexyl)-5,6,7,8-tetrahydro-1,4,5,9a-tetraazacyclopenta[b]naphthalen-9-yl](4-ethoxyphenyl)amine]
10 to 50 µM | CCOc1ccc(Nc2c3c(nc4ccnn24)N([C@@H]2CCCC[C@@H]2N)CCC3)cc1 [B-003]
50 to 100 µM | CCOc1ccc(Nc2c3c(nc4ccnn24)N(CCN(C)C)CCC3)cc1 [B-007]
50 to 100 µM | CCOc1ccc(Nc2c3c(nc4ccnn24)N(C2CCCC(N)C2)CCC3)cc1 (stereo not shown) [B-013]
< 10 µM | CCOc1ccc(Nc2c3c(nc4ccnn24)N(C2CCCNC2)CCC3)cc1 (stereo not shown) [B-014]
10 to 50 µM | CCOc1ccc(Nc2c3c(nc4ccnn24)N(CCCN)CCC3)cc1 [B-015]
10 to 50 µM | CCOc1ccc(Nc2c3c(nc4ccnn24)N(C2CCN(Cc4ccccc4)C2)CCC3)cc1 (stereo not shown) [B-016]
< 10 µM | CCOc1ccc(Nc2c3c(nc4ccnn24)N(C2CCNCC2)CCC3)cc1 [B-017]
50 to 100 µM | CCOc1ccc(Nc2c3c(nc4ccnn24)N(Cc2cccnc2)CCC3)cc1 [B-018]
< 10 µM | CCOc1ccc(Nc2c3c(nc4ccnn24)N(C2CCNC2)CCC3)cc1 (stereo not shown) [B-021]
10 to 50 µM | CCOc1ccc(Nc2c3c(nc4ccnn24)N(C2CCN(CC)C2)CCC3)cc1 (stereo not shown) [B-022]
< 10 µM | CCOc1ccc(Nc2c3c(nc4ccnn24)N([C@H]2CCCNC2)CCCC3)cc1 [C-001, (S)-(4-ethoxyphenyl)(5-piperidin-3-yl-6,7,8,9-tetrahydro-5H-1,4,5,10a-tetraazacyclohepta[f]inden-10-yl)amine]
10 to 50 µM | CCOc1ccc(Nc2c3c(nc4ccnn24)N([C@H]2CCCNC2)C(=O)C3)cc1 [D-001]
50 to 100 µM | CCOc1ccc(Nc2c3c(nc4ccnn24)N(C[C@H]2CCCNC2)C(=O)C3)cc1 [D-002]
50 to 100 µM | CCOc1ccc(Nc2c3c(nc4ccnn24)N(CCN)C(=O)C3)cc1 [D-003]
10 to 50 µM | CCOc1ccc(Nc2c3c(nc4ccnn24)N([C@H]2CC[C@H](N)CC2)C(=O)C3)cc1 [D-006]
< 10 µM | CCOc1ccc(Nc2c3ccn([C@H]4CCCNC4)c3nc3ccnn23)cc1 [F-001, (S)-(4-ethoxyphenyl)(5-piperidin-3-yl-5H-14,5,8a-tetraaza-s-indacen-8-yl)amine]
10 to 50 µM | CCOc1ccc(Nc2c3cc(CO)n([C@H]4CCCNC4)c3nc3ccnn23)cc1 [F-002]
< 10 µM | CCOc1ccc(Nc2c3c(nc4ccnn24)N([C@H]2CCCNC2)CC=CC3)cc1 [G-001, (S)-(4-ethoxyphenyl)(5-piperidin-3-yl-6,9-dihydro-5H-1,4,5,10a-tetraazacyclohepta[f]inden-10-yl)amine]
